Data on one compound can be found in PMC5915154, “Aloe-emodin as drug candidate for cancer therapy” (Oncotarget, 2018).

The test system of one data set is HEK293-ABCB5 cells. In words: Resazurin reduction assay, HEK293-ABCB5. The format is cell-based. Particulars: Homo sapiens, 72 h. The text has this:
(§1) The cell lines used in the present work, their origins and maintenance conditions were previously reported. In brief, drug-sensitive CCRF-CEM and multidrug resistant P-glycoprotein-over-expressing CEM/ADR5000 leukemia cells, MDA-MB-231-pcDNA3 breast cancer cells and their transfectant subline MDA-MB-231-BCRP clone 23, HCT116 (p53^+/+) colon cancer cells and its knockout clone HCT116 (p53^-/-), U87.MG glioblastoma multiform cells and their transfectant subline U87.MGΔEGFR as well as HEK293 human embryonic kidney cells transfected with or without a cDNA for ABCB5 were used. The human peripheral mononuclear cells (PMNC) were isolated from fresh blood samples of a healthy donor by using Histopaque® (Sigma-Aldrich, Taufkirchen, Germany).
(§2) Resazurin reduction assay was conducted to test the cytotoxicity of the compounds. This assay is based on the reduction of resazurin to resorufin by viable cells. […] Briefly, aliquots of 0.5×10^4 adherent cells which were allowed to attach overnight and 1×10^4 suspension cells per well were seeded in 96-well-plates with or without the addition of varying concentrations of the test substance to get a total volume of 200 μL/well. After 72 h incubation and addition of resazurin (Sigma-Aldrich) for 4 h, staining was measured by an Infinite M2000 ProTM plate reader (Tecan, Germany) using an excitation wavelength of 544 nm and an emission wavelength of 590 nm. […]
Background: Alamar Blue is a resazurin reagent that responds to reducing activity.

Data set [1] relates to CCRF-CEM cells. In words: Cell cycle analysis (PI, flow cytometry). The format is cell-based, human. To be noted: 4-fold IC50, 24 h. As to the method: The cells were collected, washed in PBS and fixed with ice-cold 96% ethanol. After washing the cells with PBS again, the cells were dissolved in PBS and stained with propidium iodide (PI, Sigma-Aldrich) at a final concentration of 50 μg/mL for 15 min in the dark. Cell cycle analyses were performed using a BD Accuri™ C6 Flow cytometer (Becton-Dickinson, Heidelberg, Germany) at 488 nm excitation wavelength, and emission was measured by a 610/20 nm band pass filter. All experiments were performed at least in triplicates. The protocol has been recently reported by us.
On the technique in general: Flow cytometry measures light scatter and fluorescence of single cells or particles in a stream.

The subject of data set [2] is HCT116 (p53+/+) colon cancer cells. In words: Resazurin reduction assay, HCT116 (p53+/+). To be noted: Homo sapiens, HCT-116, 72 h. The format is cell-based.
Excerpt: as §1, §2

In data set [3] the test system is CCRF-CEM cells. In words: Mitochondrial membrane potential (JC-1, flow cytometry). The format is cell-based, human. Particulars: CCRF-CEM, 2- and 4-fold IC50, 24 and 48 h. The text has this:
The JC-1 Mitochondrial Membrane Potential Assay Kit (Cayman Chemical, Ann Arbor, MI, USA) was applied for the detection of MMP by flow cytometry according to the manufacturer’s instructions. The cationic dye, 5, 5’, 6, 6’- tetrachloro- 1, 1’, 3, 3’- tetraethylbenzimidazolylcarbocyanine iodide (JC-1) enters the mitochondria and changes its fluorescent properties based on the aggregation of the probe. In healthy cells having high MMP, JC-1 forms complexes known as J-aggregates with intense red fluorescence. On the other hand, in cells with low MMP, JC-1 remains in its monomeric form showing green fluorescence. […] A LSR-Fortessa FACS analyzer (Becton–Dickinson) was used to detect the J-aggregate form of JC-1 with an excitation wavelength of 535 ± 20 nm and an emission wavelength of 590 ± 20 nm as well as the monomeric form of JC-1 at excitation and emission wavelengths of 485 and 535 nm, respectively. The results were analyzed by the FlowJo software (Celeza, Olten, Switzerland). 2×10^4 cells were counted for each experiment which were repeated in triplicate.

For data set [4], the system named is Human peripheral mononuclear cells (PMNC). Description: Toxicity in normal cells, resazurin assay. Particulars: PMNC of a healthy donor, all concentrations tested 0.001-100 μM. The class given is cell-based. As to the method: We also investigated Aloe-emodin’s toxicity towards normal cells. Human peripheral mononuclear cells (PMNC) were isolated from fresh blood samples of a healthy donor and tested against various concentrations of Aloe-emodin ranging from 0.001-100 μM.
Normal human peripheral mononuclear cells (PMNC) were isolated from fresh blood samples of a healthy donor using Histopaque® (Sigma-Aldrich). In brief, 6 mL blood were layered with 6 mL Histopaque® and centrifuged (400 × g) for 30 min at 4°C. The opaque interface containing lymphocytes and other mononuclear cells was transferred into a new tube and washed several times. Isolated PMNCs were kept in Panserin 413 medium (PAN-Biotech, Aidenbach, Germany) supplemented with 2 % phytohemagglutinin M (PHA-M, Life Technologies, Darmstadt, Germany).
Resazurin reduction assay was conducted to test the cytotoxicity of the compounds. This assay is based on the reduction of resazurin to resorufin by viable cells. […] After 72 h incubation and addition of resazurin (Sigma-Aldrich) for 4 h, staining was measured by an Infinite M2000 ProTM plate reader (Tecan, Germany) using an excitation wavelength of 544 nm and an emission wavelength of 590 nm. […]

Data set [5] relates to MDA-MB-231-pcDNA breast cancer cells. Description: Resazurin reduction assay, MDA-MB-231-pcDNA. The format is cell-based. Particulars: Homo sapiens, 72 h.
Excerpt: as §1, §2

For orientation: IC50 means the point on the concentration scale where inhibition reaches its midpoint. For the compound `O=C1c2cccc(O)c2C(=O)c2c(O)cc(CO)cc21` [Aloe-emodin], the IC50 in the data set with HEK293-ABCB5 cells was 25.9 µM; in data set [2], 16.5 µM; in data set [5], 22.3 µM. In addition, in the data set on CCRF-CEM cells [1], the cell cycle arrest result was “clear arrest in the S-phase”. Moreover, in the data set on CCRF-CEM cells [3], the “MMP depolarization (JC-1 fluorescence)” value was “shift from red to green fluorescence”. For the same compound, the “cytotoxic activity towards normal cells” value in data set [4] is reported as “did not show cytotoxic activity”.
